# Source: US20050148495A1, “Methods and materials including for treating acne” (priority 2003, published 2005)
# Where two headings read alike, the source gives them in different places. Non-standard residues stand in square brackets, D forms with d. Residues, ends and D or L forms follow the SMILES beside them. d1Nal = N[C@H](Cc1cccc2ccccc12)C(=O)O
# Legend:
# Streptococcus mutans = assay: MIC, panel of human pathogens, standardized NCCLS protocols; format: cell-based; settings: Streptococcus mutans 25175
# P. acnes (ATCC 6919) = assay: Post-antibiotic effect (PAE) study; format: cell-based, Propionibacterium acnes
# Protocol: Post-antibiotic effect (PAE) studies with XMP.629 were conducted according to the procedure described by Craig, W. and S. Gudmundsson, “Postantibiotic Effect,” p. 296, In: Lorian, V. (ed.) Antibiotics in Laboratory Medicine, 4th ed. The post antibiotic effect measures the duration that an antibiotic affects target organisms after contact with the bacteria. In this study, an initial concentration of 5×10^6 CFU/mL P. acnes (ATCC 6919) and 1 μg/mL were incubated for 15, 30, or 60 minutes and then diluted 100-fold in BHI. The treated organisms and matched untreated controls were incubated for […]. Samples were taken and counted at hourly intervals. Recovery was determined by plate counts over time.
# The postantibiotic value is the difference in time between the controls and treated cultures to increase 1 log10. Because of the long generation time (slow growth) of the organism, the recovery time was unusually long, >12 hours. This may have influenced the results as typical assays are completed within 5-6 hours.
# [1] = tested on: guinea pigs, Crl:(HA)BR (Albino Hartley); assay: Guinea pig sensitization (maximization) test; format: in vivo
# Protocol: A sensitization (maximization) study was performed to evaluate the potential of XMP.629 to elicit skin sensitization reactions, such as allergic contact dermatitis, in guinea pigs via intradermal injection and topical patch applications. Procedures for conducting dermal studies that determine the potential of substances to induce delayed contact hypersensitivity are well-known and are described, for example, in Magnusson, B. et al., Allergic Contact Dermatitis in the Guinea Pig, Charles C. Thomas Publishing, Springfield, Ill., 1970 and Klecak, G., “Test Methods for Allergic Contact Dermatitis in Animals”, Dermatoxicology, 5th Edition, Taylor & Francis Publishing, Washington D.C., pages 437-459, the disclosures of which are incorporated herein by reference. A total of forty two-month old guinea pigs, twenty male and twenty female, from the strain CrI:(HA)BR(Albino Hartley) were employed for the entire regimen of the sensitization study.
# First, a preliminary range-finding test was conducted to determine the test concentration of XMP.629 to be used in the second test, induction phase intradermal injection and topical patch application tests. The range-finding test was performed (i) intradermally on two guinea pigs (one male and one female) by injecting concentrations of 2, 4, 8, 16, and 20 mg/mL XMP.629; and (ii) topically on three guinea pigs (two males and one female) by administering patches containing concentrations of 5, 10, 15, and 20 mg/mL XMP.629. […] Topical patches were prepared by spreading a thick even layer of 0.4 mL of XMP.629 over a 2×2 cm of Whatman No.3 filter paper. Topical patches were applied to the torso of the guinea pig and covered by an overlapping plastic adhesive tape followed by additional wrapping tape. After a 24 hour exposure period, the patches were removed and the application sites were washed to removed any excess XMP.629 that may be present. […] Intradermal injection sites and topical application sites were evaluated using a sensitization grade rating. […] Each site could attain a maximum possible score of 3, as scored according to the rating listed below: • 0=No reaction • 1=Scattered mild erythema • 2=Moderate and diffuse erythema • 3=Intense erythema and edema
# The second induction phase test was conducted as a two-stage operation with intradermal injections initially being administered followed one week later by exposure to a closed patch. […] Following a period of 24 and 48 hours, evaluations of the injection area were recorded. […] Dermal irritation scores of one or higher were recorded for doses of 8 mg/mL of XMP.629.
# A third, challenge (maximization) test was performed two weeks (day 22) after initiation of the second, induction phase tests. […] Patches were sealed to the flanks for approximately 24 hours before observations were recorded.
# P. acnes = settings: each strain: UPC686, ATCC 6919 intermediate-erythromycin, UP2022
# Staphylococcus aureus = settings: for MBC: agent alone
# [2] = set-up: decrease of plasma levels within the first 12 hours: dose or concentration left out as unconfirmed; settings: for T1/2α / T1/2β / T1/2γ / T1/4 average / Vc: Sinclair mini-pig
# [3] = 0.1, 0.5, or 1% gel on 15% BSA; limit of quantification 1 ng/mL
# Protocol: XMP.629 acetate gel (0.1, 0.5, or 1% XMP.629 acetate per gram gel) was applied to the skin of mini-pigs. The dose of gel in each group was calculated as that amount which would cover 15% of the body surface area (BSA) at a rate of 2 mg of gel per cm2 of BSA. The application area was washed 24 hours following XMP.629 acetate gel application. Blood samples were collected at selected times up to 168 hours after dosing, plasma was extracted, and assayed for XMP.629 using an LC/MS/MS assay (limit of quantification=1 ng/mL).
# in vivo = settings: both, Sprague-Dawley, rat, plasma, 0.2 mg/kg
# Protocol: Using non-radiolabeled XMP.629, a pharmacokinetic study was conducted in an analogous manner as described above for ^3H-XMP.629. However, in this study, a 0.05 or a 0.2 mg/kg intravenous dose of XMP.629 was administered to 2 males and 2 females rats. Blood samples were collected for 168 hours following dosing and plasma XMP.629 concentrations were measured using liquid chromatography/mass spectrometry (LC/MS).
# physchem = settings: aqueous solution
# Protocol: In additional studies, a variety of formulations of XMP.629 were tested for stability under various temperatures, such as 25° C., 40° C., and 50° C., and at various time points, such as 0.5, 1, and 2 months.
# The solubility of XMP.629 acetate in various solvents was also evaluated.
# Solubility studies were conducted using a variety of solvent systems and/or skin penetration enhancers.
# [4] = 0.05 mg/kg XMP.629 acetate short IV infusion
# [5] = 0.2 mg/kg XMP.629 acetate short IV infusion
compound,measurement,setting,value
"CC(C)C[C@@H](NC(=O)[C@H](N)CCCCN)C(=O)N[C@H](Cc1ccccc1)C(=O)N[C@H](CCCNC(=N)N)C(=O)N[C@H](Cc1cccc2ccccc12)C(=O)N[C@H](CCC(N)=O)C(=O)N[C@H](C)C(=O)N[C@H](CCCCN)C(=O)N[C@H](Cc1cccc2ccccc12)C(N)=O [XMP.629, NH2-lys-leu-phe-arg-(3-(1-naphthyl)-ala)-gln-ala-lys-(3-(1-naphthyl)-ala)-CONH2] (H-[dK][dL][dF][dR][d1Nal][dQ][dA][dK][d1Nal]-NH2)",Minimum Inhibitory Concentrations,Streptococcus mutans,≦1 μg/mL
same,PAE value,"P. acnes (ATCC 6919); 1 μg/mL, contact 30 or 60 minutes, accurate value could not be assigned",≥ 12 h
same,recovery of affected cells,P. acnes (ATCC 6919); exposure to 0.5 to 2.0 MBCs for 15 minutes,"did not recover, even after 24 hours of incubation"
same,"duration of continuing inhibitory, but not lethal, effect after contact",P. acnes (ATCC 6919); residence time greater than 15 minutes,more than 5 hours
same,"skin sensitization, overall","[1]; 10 mM sodium acetate solution, topical patch challenge",weak skin sensitizing response
same,Dermal irritation scores,[1]; doses of 8 mg/mL,one or higher
same,highest non-irritating dose,[1]; induction phase tests,4 mg/mL
same,challenge phase score,[1]; topical patch 4 mg/mL,did not score higher than one
same,Minimum Inhibitory Concentrations,Pseudomonas aeruginosa; Pseudomonas aeruginosa 9027,8.00 µg/mL
same,Minimum Inhibitory Concentrations,Pseudomonas aeruginosa; Pseudomonas aeruginosa 19660,8.00 µg/mL
same,Minimum Inhibitory Concentrations,Pseudomonas aeruginosa; Pseudomonas aeruginosa 27853,4.00 µg/mL
same,Minimum Inhibitory Concentrations,Pseudomonas aeruginosa; Pseudomonas aeruginosa XS-65 (MDR),8.00 µg/mL
same,MBC,P. acnes,1 µg/mL
same,MBC,Staphylococcus aureus; Staphylococcus aureus 076U-550,8 µg/mL
same,MBC,Staphylococcus aureus; Staphylococcus aureus 230U-579,8 µg/mL
same,MBC,Staphylococcus aureus; Staphylococcus aureus 314U-148,8 µg/mL
same,XMP.629 MBC,"Staphylococcus aureus; Staphylococcus aureus 342U-116, XMP.629 alone",8 µg/mL
same,MBC,Staphylococcus aureus; Staphylococcus aureus 342U-116,8 µg/mL
same,MBC,Staphylococcus aureus; Staphylococcus aureus 15031-1857,4 µg/mL
same,T1/2α,[2]; [4],5.46 min
same,T1/2β,[2]; [4],1.28 h
same,T1/2γ,[2]; [4],15.0 h
same,T1/4 average,[2]; [4],0.36 h
same,Vc,[2]; [4],67.4 mL/kg
same,T1/2α,[2]; [5],1.86 min
same,T1/2β,[2]; [5],1.03 h
same,T1/2γ,[2]; [5],15.4 h
same,T1/4 average,[2]; [5],0.58 h
same,Vc,[2]; [5],101.8 mL/kg
same,decrease of plasma levels within the first 12 hours,[2]; short IV infusion,100 fold
same,plasma concentrations after topical administration,[3],no measurable plasma concentrations
same,clearance,in vivo; intravenous,~5.33 mL/min/kg
same,half-life,"in vivo; intravenous, alpha half-life, two compartment model",~20 min
same,half-life,"in vivo; intravenous, terminal half-life, two compartment model",~960 min
same,AUC,in vivo; iv,744 ng·h/mL
same,clearance,in vivo; iv,5.32 mL/min/kg
same,Vd,"in vivo; iv, Vc (volume of distribution of the central compartment), non-labeled XMP.629, 0.2 mg/kg intravenous, LC/MS, two compartment model, mean",0.202 L/kg
same,Vd,"in vivo; iv, Vss (volume of distribution at steady state), non-labeled XMP.629, 0.2 mg/kg intravenous, mean",2.25 L/kg
same,half-life,"in vivo; iv, t1/2 (average half-life), non-labeled XMP.629, 0.2 mg/kg intravenous, mean",26.4 min
same,half-life,"in vivo; iv, t1/2 α (α half-life), non-labeled XMP.629, 0.2 mg/kg intravenous, mean",21.2 min
same,half-life,"in vivo; iv, t1/2 β (β half-life), non-labeled XMP.629, 0.2 mg/kg intravenous, mean",972 min
same,solubility,physchem,≥ 20 mg/mL
